The source of these data is patent US20100304409A1, “METHOD FOR DETECTING PREMATURE SENESCENCE IN TUMOR CELLS AND A KIT FOR DETECTING PREMATURE SENESCENCE IN TUMOR CELLS” (KOREA INSTITUTE OF RADIOLOGICAL & MEDICAL SCIENCES, priority 2009, published 2010).

The structures appear in SMILES notation.

Common to all, as to format: cell-based
Test [1] deals with breast cancer cell line (MCF7). Briefly: Microscopic examination of cell morphology, MCF7. To be noted: for cell morphology: time course 0-96 hours. As for the experimental part:
In order to confirm premature senescence, characteristic morphological changes of cells in the control group and the breast cancer cell line 4 days after irradiation exposure thereof, each of which prepared in Section 1-1, were examined under a microscope (ECLIPSE TE300, Nikon).
In order to ascertain doxorubicin-induced senescence or apoptosis of a tumor cell line, the procedure was carried out in the same manner as in Section 1-2 of Example 1, except that the experiment was conducted according to a time-course schedule (0, 16, 24, 48, and 96 hours) using the cell line of Section 4-1.
Morphological changes of cells in the control group and the tamoxifen-treated group of Section 8-1 were examined under a microscope (ECLIPSE TE300, Nikon).

In a further test the test system is LC3-II. Put plainly: Western blot analysis of LC3-II (autophagy biomarker), MCF7. To be noted: MCF7, tamoxifen 10 μmol/L for 2 days. As to the method: (§1) The breast cancer cell line (MCF7) of Section 1-1, taken 4 days after irradiation exposure was applied to the cells, was washed with PBS, and the cell sample was subjected to protein extraction using a cell lysis buffer (50 mM Tri-HCl, 1% NP-40, 0.25% sodium deoxycholate, 150 mM NaCl, 1 mM PMSF, 50 mM NaF, 0.2 mM Na3VO4, 10 g/mL aprotinin, and 2 g/mL leupeptin). The extracted protein was centrifuged at 11,000 rpm for 10 min. The supernatant was collected and subjected to quantitative analysis using Bradford protein assay (Bradford, M., Anal. Biochem. 72:248-254 (1976)). 20 μg of the protein was added to 2× SDS loading buffer (60 mm Tris-Cl (pH 6.8), 25% glycerol, 2% SDS, 14.4 mM mercaptoethanol, and 0.1% bromophenol blue), and the mixture was heated at 95 for 5 min and subjected to electrophoresis on 8% SDS polyacrylamide gel at 80V for 2 hours. After the electrophoresis was complete, the separated protein was transferred to a nitrocellulose membrane (Whatman). The protein-transferred membrane was placed in a PBS solution containing 5% nonfat dry milk, and allowed to stand at room temperature for 1 hour to be blocked. Primary antibodies diluted to 1:1000 were added thereto, followed by reaction at 4 for 16 hours. […]
For orientation: In western blotting, separated proteins are transferred to a membrane and probed.

Test [2] relates to eEF1A1 (eukaryotic elongation factor 1 alpha 1). Briefly: Western blot analysis of eEF1A1 level, MCF7. As to the method:
(§2) The breast cancer cell line (MCF7) of Section 1-1, taken 4 days after irradiation exposure was applied to the cells, was washed with PBS, and the cell sample was subjected to protein extraction using a cell lysis buffer (50 mM Tri-HCl, 1% NP-40, 0.25% sodium deoxycholate, 150 mM NaCl, 1 mM PMSF, 50 mM NaF, 0.2 mM Na3VO4, 10 g/mL aprotinin, and 2 g/mL leupeptin). The extracted protein was centrifuged at 11,000 rpm for 10 min. The supernatant was collected and subjected to quantitative analysis using Bradford protein assay (Bradford, M., Anal. Biochem. 72:248-254 (1976)). 20 μg of the protein was added to 2× SDS loading buffer (60 mm Tris-Cl (pH 6.8), 25% glycerol, 2% SDS, 14.4 mM mercaptoethanol, and 0.1% bromophenol blue), and the mixture was heated at 95 for 5 min and subjected to electrophoresis on 8% SDS polyacrylamide gel at 80V for 2 hours. After the electrophoresis was complete, the separated protein was transferred to a nitrocellulose membrane (Whatman). The protein-transferred membrane was placed in a PBS solution containing 5% nonfat dry milk, and allowed to stand at room temperature for 1 hour to be blocked. Primary antibodies diluted to 1:1000 were added thereto, followed by reaction at 4 for 16 hours. The primary antibodies were polyclonal anti-eEF1A1 antibodies (Abcam, Mass., USA, Cat # ab37969 ) and anti-CD antibodies (Santa Cruz Biotechnology, Calif., USA, Cat # SC-6494 ). The secondary antibodies were horseradish peroxidase-conjugated anti-rabbit antibodies (GE healthcare, Backinghanshire, UK, Cat # NA934V). In addition, an enhanced chemiluminescence (ECL) reagent (Amersham Biosciences, Piscataway, N.J.) was used for confirmation of the reaction. Actin was used as an internal positive control, and primary antibodies were anti-actin antibodies (Santa Cruz Biotechnology, Calif., USA, Cat # SC-1616).
(§3) The signal intensity was scanned with HP Scanjet 2400 (Hewlett-Packard Company, Palo Alto, Calif., USA) and analyzed with ImageJ Program (http://rsb.info.nih.gov/ij/).
(§4) The procedure was performed in the same manner as in Section 1-6 of Example 1, except that the cell line with treatment of doxorubicin at a high dose and the cell line with treatment of doxorubicin at a low dose, each of which prepared in Section 4-1, were used. In order to confirm the occurrence of apoptosis, a level of poly(ADP-ribose) polymerase (PARP) serving as an apoptosis biomarker was detected according to Western blot analysis as in Section 1-6 of Example 1, except that polyclonal anti-PARP antibodies (Cell Signaling Technology, Mass., USA, Cat #9541) were used as primary antibodies.
(§5) The procedure was performed in the same manner as in Section 1-6 of Example 1, except that the cell line prepared in Section 6-1 was used.
(§6) P-pRb and CDK2 were used as markers of G1/S phase transition arrest. Protein levels were confirmed by Western blot analysis in the same manner as in Section 1-6 of Example 1, except that primary antibodies directed against P-pRb were Phosphoro-pRb antibodies (Cell Signaling Technology, Danvers, Mass., Cat #9308), and primary antibodies directed against CDK2 were anti-CDK2 antibodies (Santa Cruze Biotechnology, Calif., USA, Cat #SC-163).
(§7) The procedure was performed in the same manner as in Section 1-6 of Example 1, except that the cell line prepared in Section 8-1 was used. In order to detect changes in levels of LC3-II which is an autophagy biomarker, anti-LC3-II antibodies (Sigma, Mo., USA, Cat #L8919) were used as primary antibodies directed against LC3-II.

Test [3] relates to CD (cathepsin D). Briefly: Western blot analysis of CD level, MCF7. As to the method:
as §2, §3, §4, §5, §6, §7

For a further test, the system named is CDK2. Put plainly: Western blot analysis of CDK2 (G1/S arrest marker), MCF7. Particulars: MCF7, double thymidine treatment (15 h, 0.5 mg/mL, 8 h interval), arrested. As to the method:
as §1

The test system of test [4] is P-pRb (phosphorylated retinoblastoma). Put plainly: Western blot analysis of P-pRb (G1/S arrest marker), MCF7. To be noted: MCF7, double thymidine treatment (15 h, 0.5 mg/mL, 8 h interval), arrested. As for the experimental part:
as §1

Test [5] concerns lung cancer cell line H460. Put plainly: Microscopic examination of cell morphology, H460. To be noted: 96 hours. As to the method: In order to ascertain doxorubicin-induced senescence or apoptosis of a tumor cell line, the procedure was carried out in the same manner as in Section 1-2 of Example 1, except that the experiment was conducted 96 hours after treatment of doxorubicin on the cell line of Section 5-1.

Test [6] relates to CD (cathepsin D). Briefly: Western blot analysis of CD level, H460. As to the method:
(§8) The breast cancer cell line (MCF7) of Section 1-1, taken 4 days after irradiation exposure was applied to the cells, was washed with PBS, and the cell sample was subjected to protein extraction using a cell lysis buffer (50 mM Tri-HCl, 1% NP-40, 0.25% sodium deoxycholate, 150 mM NaCl, 1 mM PMSF, 50 mM NaF, 0.2 mM Na3VO4, 10 g/mL aprotinin, and 2 g/mL leupeptin). The extracted protein was centrifuged at 11,000 rpm for 10 min. The supernatant was collected and subjected to quantitative analysis using Bradford protein assay (Bradford, M., Anal. Biochem. 72:248-254 (1976)). […]
as §4, with “antibodies. […]” for “antibodies.”

Test [7] concerns breast cancer cell line (MCF7). Briefly: Senescence-associated β-galactosidase activity staining, MCF7.
Protocol: The cells were washed twice with PBS and fixed with 3% formaldehyde at room temperature for 3 to 5 min. The fixed cells were washed once again with PBS, and 5 mL of a β-galactosidase activity staining solution (1 mg/mL X-Gal, 40 mM citric acid/sodium phosphate (pH 6.0), 5 mM potassium ferrocyanide, 5 mM potassium ferricyanide, 150 mM sodium chloride, and 2 mM magnesium chloride) was added thereto, followed by reaction in an incubator at 37 for 12 to 16 hours. During the reaction, the cells were cultured under light-shielding conditions by wrapping of the culture dish in silver foil.
For test [8], the system named is eEF1A1 (eukaryotic elongation factor 1 alpha 1). Briefly: Western blot analysis of eEF1A1 level, H460. As to the method: as §8
as §4, with “antibodies. […]” for “antibodies.”

Test [9] deals with poly(ADP-ribose) polymerase (PARP). Briefly: Western blot analysis of PARP cleavage (apoptosis biomarker), MCF7. Particulars: MCF7, high dose (10 μg/mL). As to the method:
as §8, §4

[10] abbreviates: MCF7, tamoxifen 10 μmol/L for 2 days, autophagy.
Where [11] appears, read: MCF7, double thymidine block, arrested at G1/S.
[12] abbreviates: MCF7, released from DTB, additional 48 h.
Setting [13] is: H460, high-dose doxorubicin (10 μg/mL), apoptosis.
Where [14] appears, read: H460, low-dose doxorubicin (50 ng/mL).
The mark [15] stands for this setting: MCF7, Day 4, Day 0=1, ImageJ scanning, dose not restated (senescence, low dose implied).
Setting [16] is: MCF7, high dose (10 μg/mL), apoptotic conditions.
Where [17] appears, read: MCF7, low-dose doxorubicin (50 ng/mL).
Setting [18] is: MCF7, camptothecin 40 nM, etoposide 30 μM.
Setting [19] is: MCF7, camptothecin 40 nM, etoposide 30 μM, control group (Con)=1.

For `CC/C(=C(\c1ccccc1)c1ccc(OCCN(C)C)cc1)c1ccccc1` [tamoxifen], the “cell morphology (autophagy)” value in test [1] (MCF7, tamoxifen 10 μmol/L for 2 days) is on record as “occurrence of autophagy”. Further, the “level of LC3-II (Western blot)” value in the test on LC3-II is reported as “increased level”. Moreover, the “level of eEF1A1 (Western blot)” value in test [2] (setting [10]) is “decreased”. In addition, the “level of CD (Western blot)” value in the test on CD (cathepsin D) [3] (setting [10]) is reported as “decreased”.

Turning to `Cc1cn([C@H]2C[C@H](O)[C@@H](CO)O2)c(=O)[nH]c1=O` [DTB, thymidine], the “protein level of eEF1A1 (Western blot)” value in [2] (setting [11]) is “No significant alteration”. For the same molecule, the “eEF1A1 level (Western blot)” value in [2] (setting [12]) is “did not exhibit any alteration”. For the same molecule, the “CDK2 level (Western blot)” value with CDK2 is recorded as “accumulation”. In test [4], the “phosphorylated pRb level (Western blot)” value is reported as “decrease”. Moreover, the “protein level of CD (Western blot)” value in the test with CD (cathepsin D) [3] (setting [11]) is given as “No significant alteration”. Besides, the “CD level (Western blot)” value with CD (cathepsin D) [3] (setting [12]) was “did not exhibit any alteration”.

Turning to `COc1cccc2c1C(=O)c1c(O)c3c(c(O)c1C2=O)C[C@@](O)(C(=O)CO)C[C@@H]3O[C@H]1C[C@H](N)[C@H](O)[C@H](C)O1` [doxorubicin], the cell morphology entry in test [1] (MCF7, high dose (10 μg/mL)) is given as “apoptosis-specific morphological changes”; in [1] (MCF7, low dose (50 ng/mL)) it was “senescence-specific morphological changes”; in test [5] (H460, high dose (10 μg/mL)), “apoptosis-specific morphological changes”; in test [5] (H460, low dose (50 ng/mL)) it was “senescence-specific morphological changes”. In addition, the entries for the “level of CD (Western blot)” value with CD (cathepsin D) [6] (setting [13]), in the test with CD (cathepsin D) [6] (setting [14]) and with CD (cathepsin D) [3] (setting [17]) were “no changes”, “increases” and “increases”, respectively. Moreover, the “eEF1A1 band signal intensity, relative” value in [2] (setting [15]) was 0.53. For the same molecule, the “protein level of eEF1A1 (Western blot)” value in test [2] (setting [16]) is “remained unaltered”. For the same molecule, the “level of eEF1A1 (Western blot)” value in test [2] (setting [17]) is given as “decreases”; in [8] (setting [13]), “no changes”; in test [8] (setting [14]), “decreases”. Besides, the SA-β-gal staining entry in test [7] (MCF7, 4 days after treatment of doxorubicin (50 ng/mL)) is reported as “positive SA-β-gal staining”. In addition, the “PARP cleavage (apoptotic marker)” value in [9] was “induced”. The “CD band signal intensity, relative” value with CD (cathepsin D) [3] (setting [15]) was found to be 2.45. For the same molecule, in the test on CD (cathepsin D) [3] (setting [16]), the “protein level of CD (Western blot)” value is “gradually decreased”.

Turning to `CC[C@@]1(O)C(=O)OCc2c1cc1n(c2=O)Cc2cc3ccccc3nc2-1` [camptothecin], in test [2] (setting [18]), the “level of eEF1A1 (Western blot)” value is given as “decreases”. The “eEF1A1 band signal intensity, relative” value in [2] (setting [19]) was determined as 0.73. Further, the “senescence-associated β-galactosidase activity staining” value in test [7] (MCF7, camptothecin 40 nM, etoposide 30 μM, versus control group) was “exhibited characteristics of premature senescence”. Moreover, the “level of CD (Western blot)” value in the test on CD (cathepsin D) [3] (setting [18]) was “increases”. Moreover, in the test on CD (cathepsin D) [3] (setting [19]), the “CD band signal intensity, relative” value stood at 7.46.

In the case of `COc1cc([C@@H]2c3cc4c(cc3[C@@H](O[C@@H]3O[C@@H]5CO[C@@H](C)O[C@H]5[C@H](O)[C@H]3O)[C@H]3COC(=O)[C@H]23)OCO4)cc(OC)c1O` [etoposide], the “level of eEF1A1 (Western blot)” value in test [2] (setting [18]) is recorded as “decreases”. Also, the “level of CD (Western blot)” value in the test with CD (cathepsin D) [3] (setting [18]) is reported as “increases”.
